Tested on: 653999-131-R-J2-PDC complex spheroids, growth % test/control
Assay: Anticancer human tumor 653999-131-R-J2-PDC patient-derived lung adenocarcinoma cell line growth inhibition [AhR]
Details: for IC50: curve of first compound; for viability, T/C: stronger effect = lower value
Procedure, shortened: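 Agents were dosed in half-log steps down from roughly clinical Cmax, or from 10 microM where Cmax was unknown, alone and with AhR antagonists. Read-out: percent test/control growth of tumor spheroids containing HUVEC and MSC stromal cells.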
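Also: spheroids exposed to agents for seven days.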
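For viability, T/C in this document: 100% = DMSO vehicle control viability.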

For `CC(C)c1c(-c2ccccc2)nc2c(C#N)c[nH]n2c1=O` + CC(CO)NC(=O)c1cc(-c2ccc(Cl)cc2)nn(-c2cnn(C)c2)c1=O, the IC50 (second compound 0.1 µM) was > 10 µM, the IC50 (second compound 0.316 µM) was > 10 µM and the IC50 (second compound 1 µM) was > 10 µM. For the same compound, the IC50 (second compound 3.16 µM) was > 10 µM, the IC50 (second compound 10 µM) was > 10 µM and the viability, T/C (second compound 0.1 µM, first compound 0.0316 µM) was 104%. It also gave a viability, T/C (second compound 0.1 µM, first compound 0.1 µM) of 105%, a viability, T/C (second compound 0.1 µM, first compound 0.316 µM) of 99.4% and a viability, T/C (second compound 0.1 µM, first compound 1 µM) of 94.2%. For the same compound, the viability, T/C (second compound 0.1 µM, first compound 3.16 µM) was 93.3%, the viability, T/C (second compound 0.1 µM, first compound 10 µM) was 90.9% and the viability, T/C (second compound 0.316 µM, first compound 0.0316 µM) was 102%. It also gave a viability, T/C (second compound 0.316 µM, first compound 0.1 µM) of 105%, a viability, T/C (second compound 0.316 µM, first compound 0.316 µM) of 93.3% and a viability, T/C (second compound 0.316 µM, first compound 1 µM) of 101%. It also gave a viability, T/C (second compound 0.316 µM, first compound 3.16 µM) of 93.8%, a viability, T/C (second compound 0.316 µM, first compound 10 µM) of 99% and a viability, T/C (second compound 1 µM, first compound 0.0316 µM) of 104%. For the same compound, the viability, T/C (second compound 1 µM, first compound 0.1 µM) was 106%, the viability, T/C (second compound 1 µM, first compound 0.316 µM) was 114% and the viability, T/C (second compound 1 µM, first compound 1 µM) was 98%. The viability, T/C (second compound 1 µM, first compound 3.16 µM) was 97.9%, the viability, T/C (second compound 1 µM, first compound 10 µM) was 95.4% and the viability, T/C (second compound 3.16 µM, first compound 0.0316 µM) was 105%. For the same compound, the viability, T/C (second compound 3.16 µM, first compound 0.1 µM) was 108%, the viability, T/C (second compound 3.16 µM, first compound 0.316 µM) was 123% and the viability, T/C (second compound 3.16 µM, first compound 1 µM) was 93.6%. For the same compound, the viability, T/C (second compound 3.16 µM, first compound 3.16 µM) was 92.2%, the viability, T/C (second compound 3.16 µM, first compound 10 µM) was 91.9% and the viability, T/C (second compound 10 µM, first compound 0.0316 µM) was 104%. The viability, T/C (second compound 10 µM, first compound 0.1 µM) was 116%, the viability, T/C (second compound 10 µM, first compound 0.316 µM) was 100% and the viability, T/C (second compound 10 µM, first compound 1 µM) was 102%. It also gave a viability, T/C (second compound 10 µM, first compound 3.16 µM) of 95.4% and a viability, T/C (second compound 10 µM, first compound 10 µM) of 96.7%.
